This is an account of results in patent publication US20070142433A1, “Angiogenesis-affecting compounds and methods of use thereof” (priority 2004, published 2007).

Broadly, the IC50 is the concentration at which inhibition is half-maximal.

Where a name gives a salt, the structure may show the parent alone. Read-outs that look alike come from different tables or passages of the source.

One assay relates to A375. Briefly: Cell proliferation assay (crystal violet), A375. The settings on record: Homo sapiens, A-375, 72 hours, OD 595 nm. In kind it is cell-based. The protocol: (§1) In order to further confirm the surprising results described above, the compounds were tested in a cell proliferation assay. Crystal violet was used to measure cell proliferation; this basic dye stains cell nuclei and provides a sensitive, rapid evaluation. Light absorption of unstained or destained cell layers is negligible, making it possible to perform cell number measurements in wells. Six cell types (HUVEC, HDMEC, SMC, Fibroblast, A375 and RENCA) were plated and treated with the compounds in a log2 titration for 72 hours. The optimal cell number for each cell type was determined and optical density (OD) was measured at 595 nm. Each data point was measured in quadruplicate. The assay was stopped after 72 hours and subsequently analyzed. The OD-value of the plated cells before addition of the compounds was subtracted from all OD-values obtained after treatment. The percentage in relation to control proliferation was then calculated. Negative values therefore represent a count of fewer cells than were plated. The IC50 is given below in Table 1. Results are shown as a percentage in relation to the control proliferation. The IC50 were calculated using GraphPad Prism software (GraphPad Software, Inc.). Perhexiline results are depicted graphically in FIGS. 4A-4C and Erythromycin results in FIGS. 5A-5C.

Assay [1] has as its system RENCA. Briefly: Cell proliferation assay (crystal violet), RENCA. The settings on record: 72 hours, OD 595 nm. The assay is classed as cell-based. As to the method: as §1
The subject of assay [2] is RENCA. Description: Cytoviability assay (resazurin), RENCA. In kind it is cell-based. To be noted: 24 hours after treatment, read-out: IC50 cell viability RENCA. As to the method:
(§2) A cell viability assay based on cellular reduction of resazurin to the fluorescent product resorufin was performed. Viable cells can metabolize and reduce the dye, whereas dead cells rapidly lose the capacity to do so, making the increase in fluorescence directly proportional to the number of viable cells. The tested compounds were added in a log2 titration and viable cells were analyzed 24 hours after treatment. The fluorescence was determined at an excitation wavelength of 560 nm and an emission wavelength of 590 nm. The percentage of viable cells in relation to the untreated control proliferation was calculated. […] Perhexiline results are depicted graphically in FIGS. 6A-6C and Erythromycin results in FIGS. 7A-7C.
In general terms: The colour change of resazurin is a common sign of viable cells or microbes.

The next assay deals with B16F10 cells. Description: Cell viability of B16F10 cells. The assay is classed as cell-based. To be noted: Mus musculus, B16-F10; after 24 and 48 hours incubation. The protocol: as §2
Through the two aforementioned assays it was determined that RENCA cells are more sensitive when treated with Perhexiline than the other cell types in the proliferation assay and in the viability assay. Therefore, the B16F10 cells were subsequently tested. The B16F10 tumor model, like the RENCA model, is an orthotopic tumor model.

The test system of assay [3] is NHDF (human dermal fibroblasts) scattering. Description: NHDF spheroid evaluation (fibroblast scattering). The assay is classed as cell-based. The protocol:
Where the test compound was classified as an inhibitor or stimulator, a second screening process was performed. In the second screen, the test substance was thawed and 5 mM of the substance was diluted to a 10 fold concentrated working solution (100 μM) in endothelial cell basal medium. No supplements were used in the basal medium.
Instead of HUVEC, spheroids were prepared by pipetting 400 human dermal fibroblasts (NHDF) into each well of nonadhesive 96-well plates. Prior to use the NHDF were cultured according to the supplier's instructions (PromoCell, Heidelberg, Germany). The cells were allowed to aggregate overnight into spheroids (Korff and Augustin: J Cell Biol 143: 1341-52, 1998). After aggregation, 48 NHDF spheroids were harvested. Each of the harvested spheroids was seeded in 900 μl of methocel-collagen solution and pipetted into an individual well of a 24-well plate to allow collagen gel polymerization.
(§3) Thirty (30) minutes after seeding, the test substance was added. The working dilution (10 fold concentration) was utilized, 100 μl was pipetted on top of the polymerized collagen gel in each well. The plates were then incubated at 37° C. for 24 hours. At the end of the incubation period the plates were fixed by adding 1 ml paraformaldehyde (10%) to each well.
The NHDF spheroids were microscopically assayed for fibroblast scattering intensity. […] For exemplary results, see FIG. 1.

The subject of the next assay is SMC. Briefly: Cytoviability assay (resazurin), SMC. In kind it is cell-based. The settings on record: 24 hours after treatment, read-out: IC50 cell viability SMC. The protocol: as §2
Assay [4] has as its system HUVEC sprouting. Briefly: Spheroid-based 3D angiogenesis assay (IC50, alone or with VEGFR-2 inhibitor). The assay is classed as cell-based, human. The settings on record: Homo sapiens, HUVEC. The source says: Therefore, the assay was applied to test compounds alone or in combination with a VEGFR-2 inhibitor to address changes in IC50. […] The VEGFR-2 inhibitor was applied at a concentration close to the IC50.

In a further assay the test system is Fibroblast. Description: Cell proliferation assay (crystal violet), Fibroblast. In kind it is cell-based. The settings on record: 72 hours, OD 595 nm. As to the method:
as §1

The subject of assay [5] is HDMEC. Description: Cytoviability assay (resazurin), HDMEC. To be noted: 24 hours after treatment, read-out: IC50 cell viability HDMEC. In kind it is cell-based. As to the method:
as §2

Assay [6] has as its system HUVEC sprouting. Description: Primary angiogenesis screen, HUVEC spheroid evaluation (EC sprouting). In kind it is cell-based, human. The settings on record: HUVEC spheroids in collagen gel, VEGF-supplemented, 24 hours. As to the method: A test substance was selected for evaluation in angiogenesis screens. The test substance was synthesized or obtained as appropriate and stored at −20° C. in DMSO. Prior to use, the test substance was thawed and 5 mM of the substance was diluted to a 10 fold concentrated working solution (100 μM) in endothelial cell basal medium. The basal medium fraction was supplemented with 25 ng VEGF/100 μl for the stimulation of HUVEC sprouting.
The screening procedures were modified versions of those described by Korff and Augustin (J Cell Sci 112: 3249-58, 1999). By way of summary, spheroids were prepared by pipetting 400 human umbilical vein endothelial cells (HUVEC) into each well of nonadhesive 96-well plates. Prior to use the HUVEC were cultured according to the supplier's instructions (PromoCell, Heidelberg, Germany). The cells were allowed to aggregate overnight into spheroids (Korff and Augustin: J Cell Biol 143: 1341-52, 1998). After aggregation, 48 HUVEC spheriods were harvested. Each harvested spheroid was seeded in 900 μl of methocel-collagen solution and pipetted into an individual well of a 24-well plate to allow collagen gel polymerization.
as §3
The HUVEC spheriods were microscopically assayed for endothelial cell (EC) sprouting intensity. The degree of EC sprouting was classified into one of four groups by comparing the degree of sprouting to that observed in VEGF control cells. […] For exemplary results, see FIG. 1.

Assay [7] has as its system HDMEC. Briefly: Cell proliferation assay (crystal violet), HDMEC. In kind it is cell-based. The settings on record: 72 hours, OD 595 nm. As to the method: as §1
For assay [8], the system named is Endothelial cells, Fibroblast, Alexander cells. Briefly: Viability of cells (Endothelial cells, Fibroblast, Alexander cells). In kind it is cell-based.

For the compound `C1CCC(C(CC2CCCCN2)C2CCCCC2)CC1` (centres unmarked) [Perhexiline, Perhexiline maleate], the half-maximal inhibitory concentration (IC50) amounted to 25 µM in the assay on A375; 7.6 µM in the assay with RENCA [1]; 5 µM with RENCA [2]; 10 µM in the assay on B16F10 cells; 19 µM in assay [3] (Homo sapiens, NHDF); 32 µM in the assay with SMC. Also, the concentration for half-maximal inhibition (IC50) is 5.4 µM in the assay with HUVEC sprouting [4] (compound alone, read-out: IC50 3D angiogenesis assay without VEGFR-2 inhibitor); 1.5 µM in the assay with HUVEC sprouting [4] (read-out: IC50 in vitro 3D sprouting of HUVEC); 12 µM with Fibroblast; 8 µM with HDMEC [5]; 11 µM in the assay with HDMEC [7]; about 10 µM in assay [8]. In addition, in [3] (NHDF spheroids in collagen gel, no supplements, 24 hours), the “fibroblast scattering (invasion) effect” value is on record as “no fibroblast invasion effect”. Moreover, the “EC sprouting intensity compared with VEGF control” value with HUVEC sprouting [6] is “sprouting inhibition”.
